Reference: ChEMBL document CHEMBL1909046, “DrugMatrix in vitro pharmacology data”

Legend:
[1] = target: T1, Alpha-2C adrenergic receptor (Homo sapiens, UniProt P18825); assay: DRUGMATRIX: Adrenergic Alpha-2C radioligand binding (ligand: [3H] MK-912); assay type: cell membranes, Sf9, Membrane; details: sf9
T1 sequence (P18825 whole entry): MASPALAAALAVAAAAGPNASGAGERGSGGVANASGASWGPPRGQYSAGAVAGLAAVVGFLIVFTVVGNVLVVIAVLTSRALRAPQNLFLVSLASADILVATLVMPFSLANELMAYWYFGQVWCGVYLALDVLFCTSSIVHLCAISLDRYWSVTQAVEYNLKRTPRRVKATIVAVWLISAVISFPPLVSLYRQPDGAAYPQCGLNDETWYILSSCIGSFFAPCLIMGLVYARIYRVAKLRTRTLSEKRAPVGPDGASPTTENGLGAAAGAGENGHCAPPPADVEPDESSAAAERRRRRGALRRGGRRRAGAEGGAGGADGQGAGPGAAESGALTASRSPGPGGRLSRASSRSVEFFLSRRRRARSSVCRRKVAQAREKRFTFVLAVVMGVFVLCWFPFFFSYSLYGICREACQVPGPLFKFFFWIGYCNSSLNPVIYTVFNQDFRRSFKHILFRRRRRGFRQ

[2] = target: Sodium-dependent noradrenaline transporter (Homo sapiens, UniProt P23975); assay: DRUGMATRIX: Norepinephrine Transporter radioligand binding (ligand: [125I] RTI-55); assay type: cell membranes, MDCK, Membrane; details: mdck; Not Active = under 50% inhibition at 10 µM
[3] = DRUGMATRIX: GABAA, Muscimol, Central radioligand binding (ligand: [3H] Muscimol); assay type: cell membranes, Rattus norvegicus, Wistar, Brain, Membrane; details: Not Active = under 50% inhibition at 10 µM
[4] = DRUGMATRIX: Glutamate, NMDA, Agonism radioligand binding (ligand: [3H] CGP-39653); assay type: cell membranes, Rattus norvegicus, Wistar, Cerebral cortex, Membrane; details: Not Active = under 50% inhibition at 10 µM
[5] = DRUGMATRIX: Interleukin IL-1 radioligand binding (ligand: [125I] interleukin 1beta); assay type: cell membranes, Membrane; details: nih3t3; Not Active = under 50% inhibition at 10 µM
[6] = target: Protein phosphatase 3 catalytic subunit alpha (Homo sapiens, UniProt Q08209); set-up: species or system Escherichia coli;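 note: inhibition of calcineurin (PP2B) enzyme activity, measured with DiFMUP as the substrate; in other assays of this panel Not Active means under 50% inhibition at 10 µM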
Acetylcholinesterase = Acetylcholinesterase (Homo sapiens, UniProt P22303); assay: DRUGMATRIX: Acetylcholinesterase enzyme inhibition (substrate: acetylthiocholine); assay type: cell-based, HEK293; details: hek293; Not Active = under 50% inhibition at 10 µM
Sequence of Acetylcholinesterase (P22303 whole entry): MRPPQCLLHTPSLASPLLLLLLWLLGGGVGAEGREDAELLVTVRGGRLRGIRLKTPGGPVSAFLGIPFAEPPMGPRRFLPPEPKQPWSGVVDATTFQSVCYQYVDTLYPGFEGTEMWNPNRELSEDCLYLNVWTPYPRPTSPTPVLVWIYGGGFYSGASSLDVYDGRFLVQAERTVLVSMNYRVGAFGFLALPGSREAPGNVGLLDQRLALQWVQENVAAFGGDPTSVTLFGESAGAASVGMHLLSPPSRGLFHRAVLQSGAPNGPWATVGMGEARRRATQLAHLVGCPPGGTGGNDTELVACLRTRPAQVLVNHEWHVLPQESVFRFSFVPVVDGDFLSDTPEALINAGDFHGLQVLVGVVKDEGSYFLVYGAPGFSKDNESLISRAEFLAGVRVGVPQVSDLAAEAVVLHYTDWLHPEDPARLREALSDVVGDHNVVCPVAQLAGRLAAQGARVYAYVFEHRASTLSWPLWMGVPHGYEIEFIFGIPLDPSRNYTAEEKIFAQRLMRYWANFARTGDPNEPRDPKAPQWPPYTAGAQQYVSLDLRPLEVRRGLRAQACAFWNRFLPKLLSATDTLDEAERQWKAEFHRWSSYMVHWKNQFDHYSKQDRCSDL

Sequence of Sodium-dependent noradrenaline transporter (P23975 whole entry): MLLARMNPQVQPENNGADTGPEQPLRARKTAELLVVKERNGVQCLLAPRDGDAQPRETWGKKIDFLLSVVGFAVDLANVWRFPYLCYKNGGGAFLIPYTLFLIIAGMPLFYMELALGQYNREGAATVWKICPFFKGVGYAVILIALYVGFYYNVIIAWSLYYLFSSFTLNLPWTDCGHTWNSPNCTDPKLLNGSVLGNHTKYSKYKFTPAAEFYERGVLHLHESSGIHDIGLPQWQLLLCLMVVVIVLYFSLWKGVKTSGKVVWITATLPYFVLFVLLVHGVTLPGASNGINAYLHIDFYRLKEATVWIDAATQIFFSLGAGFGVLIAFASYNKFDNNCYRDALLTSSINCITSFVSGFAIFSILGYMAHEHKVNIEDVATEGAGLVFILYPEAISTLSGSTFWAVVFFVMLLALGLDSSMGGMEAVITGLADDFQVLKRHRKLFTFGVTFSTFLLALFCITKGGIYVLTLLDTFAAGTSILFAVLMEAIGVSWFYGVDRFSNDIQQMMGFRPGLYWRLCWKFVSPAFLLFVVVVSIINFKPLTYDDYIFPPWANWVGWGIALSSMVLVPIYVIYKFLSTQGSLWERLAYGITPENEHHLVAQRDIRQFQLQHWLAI

CCC1=C[C@@H]2CN(C1)Cc1c([nH]c3ccccc13)[C@@](C(=O)OC)(c1cc3c(cc1OC)N(C)[C@H]1[C@@](O)(C(=O)OC)[C@H](OC(C)=O)[C@]4(CC)C=CCN5CC[C@]31[C@@H]54)C2 [VINORELBINE]
Not Active: IC50 [1] | IC50 [2] | IC50 [3] | Ki [3] | IC50 [4] | Ki [4] | IC50 [5] | Ki [5] | IC50 [6] | IC50 (Acetylcholinesterase)

CADMIUM DICHLORIDE
Not Active: IC50 [1] | Ki [1] | IC50 [2] | Ki [2] | IC50 [3] | Ki [3] | IC50 [4] | Ki [4] | IC50 [5] | Ki [5] | IC50 [6] | Ki [6] | IC50 (Acetylcholinesterase) | Ki (Acetylcholinesterase)
